For the experiment, the target named is Oplophorus-luciferin 2-monooxygenase catalytic subunit (Oplophorus gracilirostris, UniProt Q9GV45). The experiment can be described thus: NanoLuc Inhibition Assay. On the procedure:
NanoLuc enzyme was diluted to 0.4 ng/mL in CO2 independent media + 10% FBS to make the detection reagent. A 3× dilution series of each inhibitor was then made in the detection reagent. A "no inhibitor" control was also made for each sample. A total of 50 μL of each inhibitor dilution was mixed with 50 μL of NanoGlo buffer containing 20 μM furimazine (final furimazine concentration is 10 μM, which is atKM), and luminescence was measured. Each sample was normalized to the "no inhibitor" control.

Sequence of Oplophorus-luciferin 2-monooxygenase catalytic subunit (Q9GV45 whole entry): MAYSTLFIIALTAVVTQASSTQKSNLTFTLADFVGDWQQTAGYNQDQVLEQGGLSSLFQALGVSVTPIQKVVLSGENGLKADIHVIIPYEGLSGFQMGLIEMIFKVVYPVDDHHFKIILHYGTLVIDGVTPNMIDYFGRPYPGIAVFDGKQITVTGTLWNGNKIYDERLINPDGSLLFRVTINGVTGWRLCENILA

With `CCN(C(=O)Cn1c(C(=O)N[C@H]2CC[C@H](C(=O)OC)CC2)cc2sccc21)c1cccc(C)c1` [trans-Methyl-4-(4-(2-(ethyl(m-tolyl)amino)-2-oxoethyl)-4H-thieno[3,2-b]pyrrole-5carboxamido)cyclohexane-1-carboxylate (8)], 150 nM corresponded to half-maximal inhibition (IC50).

In general, IC50 refers to the concentration at which inhibition is half-maximal. Lower therefore signals higher potency.
